Data reported in patent US12213978B2, “Madrasin-derivative compounds, composition and uses thereof for treating cancer” (INSTITUT GUSTAVE ROUSSY, priority 2018, dated 2025).

Experiments:
[1] = test system: B16F10 melanoma cells expressing the intron-derived SL8 antigen; assay: T-cell assay: B3Z specific T-cell activation by B16F10 cells expressing the intron-derived SL8 antigen; type: cell-based, mouse; conditions: for PTP-SL8 presentation (B3Z T-cell activation): O/N
Protocol: (§1) MCA205 mouse sarcoma cell line is cultured at 37° C. under 5% CO2 in RPMI 1640 medium (Life Technologies) in the presence of 1% glutamine, 1% sodium pyruvate, 1% non-essential amino-acids, 1% penicillin/streptomycin and 10% FBS (Life Technologies). B16F10 mouse melanoma cell line is cultured at 37° C. under 5% CO2 in DMEM medium (Life Technologies) containing 1% glutamine, 1% penicillin/streptomycin and 10% FCS under standard conditions. Stable MCA205-Globin-SL8-intron cell line are cultured under the same condition as MCA205 cell line with additional 500 μg/ml G418 (Life Technologies) for selection. Stable B16F10-Globin-SL8-intron cell line are cultured under the same condition as B16F10 cell line with additional 500 μg/ml G418 (Life Technologies) for selection. The SL8/Kb-specific (B3Z) T-cell reporter hybridoma are cultured at 37° C. under 5% CO2 in RPMI 1640 medium (Life Technologies) in the presence of 1% L-glutamine, 1% penicillin/streptomycin, 50 μM β-mercaptoéthanol and 10% FCS.
(§2) MCA205 and B16F10 mouse cell lines are transfected with the plasmid YFP-Globin-SL8-intron or with the PCDNA3 empty plasmid (negative control) with the transfection reagent jetPRIME (Ozyme) or GeneJuice (Millipore) respectively according to each manufacturer protocol. Twenty-four hours after transfection, cells are treated with different doses of Madrasin (Sigma SML 1409), Madra.HCl (3·HCl) or the different compounds herein cited. Cells are then washed three times with PBS 1× and 5.10^4 tumor cells are co-cultured with 1.10^5 B3Z hybridoma in a 96-well plate. In positive control wells, 4 μg/ml of synthetic peptide SL8 is added. Cells are then incubated overnight at 37° C. with 5% CO2. The plate is centrifuged at 1200 rpm for 5 min, cells are washed twice with PBS 1× and lysed for 5 min at 4° C. under shaking in 0.2% TritonX-100, 0.2% DTT, 0.5M K2HPO4, 0.5M KH2PO4. The lysate is centrifuged at 3000 rpm for 10 min and the supernatant is transferred to a 96-well optiplate (OptiPlaque-96, PerkinElmer). A revelation buffer containing 10 mM MgCl2, 11.2 mM β-mercaptoethanol, 0.0015% IGEPAL® CA-630 and 40 μM 4-Methylumbelliferyl β-D-Galactopyranoside (MUG) in PBS is added and the plate is incubated at room temperature for 3 hours. Finally, the β-galactosidase activity is measured using the FLUOstar OPTIMA (BMG LABTECH Gmbh, 30 Offenburg, Germany). Results are expressed as mean±SEM. *P<0.05, **P<0.01, ***P<0.001 (unpaired student t test).

[2] = test system: MCA205 sarcoma cells expressing the intron-derived SL8 antigen; assay: T-cell assay: B3Z specific T-cell activation by MCA205 cells expressing the intron-derived SL8 antigen; type: cell-based, mouse; conditions: for PTP-SL8 presentation (B3Z T-cell activation): O/N
Protocol: as §1, §2

Solubility in water = type: physicochemical

COc1ccc2c(C)nc(Nc3ccc(OC)nc3)nc2c1 [EYP174, 7-Methoxy-N-(6-methoxypyridin-3-yl)-4-methylquinazolin-2-amine]
PTP-SL8 presentation (B3Z T-cell activation) ([1]; B16F10, 20 μM): increase

COc1ccc2c(C)nc(Nc3nc(C)c(C)c(=O)[nH]3)nc2c1SCC(NC(C)=O)C(=O)O (stereo not drawn) [EYP102, N-Acetyl-S-(2-((4,5-dimethyl-6-oxo-1,6-dihydropyrimidin-2-yl)amino)-7-methoxy-4-methylquinazolin-8-yl)cysteine]
PTP-SL8 presentation (B3Z T-cell activation) ([2]; MCA205, 20 μM): not see any increase
PTP-SL8 presentation (B3Z T-cell activation) ([1]; B16F10, 20 μM): not see any increase

COc1ccc2c(C)nc(Nc3nccc(OC)n3)nc2c1 [EYP179, 7-Methoxy-N-(4-methoxypyrimidin-2-yl)-4-methylquinazolin-2-amine]
PTP-SL8 presentation (B3Z T-cell activation) ([1]; B16F10, 20 μM): increase

COc1ccc2c(C)nc(Nc3c[nH]c4ccccc34)nc2c1 [EYP165, N-(1H-Indol-3-yl)-7-methoxy-4-methylquinazolin-2-amine]
PTP-SL8 presentation (B3Z T-cell activation) ([2]; MCA205, 60 μM): increase
PTP-SL8 presentation (B3Z T-cell activation) ([1]; B16F10, 60 μM): increase

COc1ccc2c(C)nc(Nc3ccc(C)cc3)nc2c1 [EYP156, 7-Methoxy-4-methyl-N-(p-tolyl)quinazolin-2-amine]
PTP-SL8 presentation (B3Z T-cell activation) ([2]; MCA205, 60 μM): not see any increase
PTP-SL8 presentation (B3Z T-cell activation) ([1]; B16F10, 60 μM): not see any increase

COc1ncc(Nc2ncc3ccccc3n2)cn1 [EYP281, N-(2-Methoxypyrimidin-5-yl)quinazolin-2-amine]
PTP-SL8 presentation (B3Z T-cell activation) ([2]; MCA205, 50 μM): increase
PTP-SL8 presentation (B3Z T-cell activation) ([1]; B16F10, 50 μM): increase

COc1ccc2c(C)nc(Nc3nc(C)c(C)c(=O)[nH]3)nc2c1SC1OC(COC(C)=O)C(OC(C)=O)C(OC(C)=O)C1OC(C)=O [EYP86, ((1S,2S,4R,5S,6S)-5-Acetoxy-7,8-diacetyl-4-((2-((4,5-dimethyl-6-oxo-1,6-dihydropyrimidin-2-yl)amino)-7-methoxy-4-methylquinazolin-8-yl)thio)-3,7λ^3,8λ^3-trioxabicyclo[4.2.0]octan-2-yl)methyl Acetate]
PTP-SL8 presentation (B3Z T-cell activation) ([2]; MCA205, 50 μM): increase

COc1ccc2c(C)nc(Nc3nc(C)c(C)c(=O)[nH]3)nc2c1 [Madrasin, 2-((7-Methoxy-4-methylquinazolin-2-yl)amino)-5,6-dimethylpyrimidin-4(3H)-one]
PTPs-dependent antigen presentation (B3Z T-cell activation) ([2]; MCA205, 5 μM or 10 μM, dose dependent): increase
PTPs-dependent antigen presentation (B3Z T-cell activation) ([1]; B16F10, 5 μM or 10 μM, dose dependent): increase
solubility in water (Solubility in water): insoluble in water

COc1ccc2c(C)nc(Nc3cc(OC)c(OC)c(OC)c3)nc2c1 [EYP188, 7-Methoxy-4-methyl-N-(3,4,5-trimethoxyphenyl)quinazolin-2-amine]
PTP-SL8 presentation (B3Z T-cell activation) ([2]; MCA205, 60 μM): increase

CNc1ccnc(Nc2nc(C)c3ccc(OC)cc3n2)n1 [EYP181, N^2-(7-Methoxy-4-methylquinazolin-2-yl)-N^4-methylpyrimidine-2,4-diamine]
PTP-SL8 presentation (B3Z T-cell activation) ([1]; B16F10, 10 μM): increase

COc1ccc2c(C)nc(Nc3nc(C)c(C)c(=O)[nH]3)nc2c1S[C@H]1O[C@@H](CO)[C@H](O)[C@@H](O)[C@@H]1O [EYP113, 2-((7-Methoxy-4-methyl-8-(((2R,3S,4R,5R,6S)-3,4,5-trihydroxy-6-(hydroxymethyl)tetrahydro-2H-pyran-2-yl)thio)quinazolin-2-yl)amino)-5,6-dimethylpyrimidin-4(3H)-one]
PTP-SL8 presentation (B3Z T-cell activation) ([2]; MCA205, 10 μM): not see any increase
PTP-SL8 presentation (B3Z T-cell activation) ([1]; B16F10, 10 μM): not see any increase

COc1ccc2c(C)nc(Nc3cn(C(=O)OC(C)(C)C)c4ccccc34)nc2c1 [EYP177, t-Butyl 3-((7-methoxy-4-methylquinazolin-2-yl)amino)-1H-indole-1-carboxylate]
PTP-SL8 presentation (B3Z T-cell activation) ([2]; MCA205, 60 μM): not see any increase
PTP-SL8 presentation (B3Z T-cell activation) ([1]; B16F10, 60 μM): not see any increase

Cc1nc(Nc2nc(C)c3ccc(OCCN4CCOCC4)cc3n2)[nH]c(=O)c1C [EYP201, 5,6-Dimethyl-2-((4-methyl-7-(2-morpholinoethoxy)quinazolin-2-yl)amino)pyrimidin-4(3H)-one]
PTP-SL8 presentation (B3Z T-cell activation) ([2]; MCA205, 20 μM): increase
PTP-SL8 presentation (B3Z T-cell activation) ([1]; B16F10, 20 μM): increase

COc1ccc2c(C)nc(Nc3ccnc(OC)n3)nc2c1 [EYP190, 7-Methoxy-N-(2-methoxypyrimidin-4-yl)-4-methylquinazolin-2-amine]
PTP-SL8 presentation (B3Z T-cell activation) ([1]; B16F10, 60 μM): increase
